Test results reported in US6043212A, “Recombinant C140 receptor, its agonists and antagonists, and nucleic acids encoding the receptor” (COR Therapeutics, Inc., priority 1995, dated 2000).
Residue numbers refer to the chain shown, from its start. Peptide text beside a SMILES is read from it.

Experiments:
[1] = target: T1, mutant C140 receptor 35His (serine-35 replaced with histidine) (Mus musculus, UniProt P55086, S39H); assay: 45Ca release by Xenopus oocytes expressing mutant C140 receptor 35His; assay type: cell-based; conditions: 35His receptor
T1 construct: Site-directed mutagenesis was employed to construct mutant receptors in the pSG-5; expressed in transfected cells; host or cells: Xenopus laevis oocytes injected with capped cRNA
T1 sequence (P55086 32-399 S39H limits assumed): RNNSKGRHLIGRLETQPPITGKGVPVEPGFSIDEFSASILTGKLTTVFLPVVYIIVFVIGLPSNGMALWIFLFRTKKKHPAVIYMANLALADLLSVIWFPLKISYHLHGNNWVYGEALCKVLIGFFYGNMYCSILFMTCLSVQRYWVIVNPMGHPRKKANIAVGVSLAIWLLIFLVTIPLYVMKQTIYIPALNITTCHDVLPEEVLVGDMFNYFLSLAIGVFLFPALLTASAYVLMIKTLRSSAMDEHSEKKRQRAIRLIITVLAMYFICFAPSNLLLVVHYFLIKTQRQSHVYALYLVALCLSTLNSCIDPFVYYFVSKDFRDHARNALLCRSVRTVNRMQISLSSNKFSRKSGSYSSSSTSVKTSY
Description: Both native and mutant C140 receptors were produced in oocytes and activated with a peptide mimicking the new amino-terminus", or by the proteolytic enzyme trypsin (which cleaves the extracellular region). Native receptors were produced by cloning the coding region of the receptor gene, using the polymerase chain reaction, into the expression vector pSG-5 (Green, S. et al., Nucleic Acid Res (1988) 16:369). The orientation and integrity of the cloned coding region was verified by determining the nucleotide sequence with the Sanger chain-termination method. Site-directed mutagenesis was employed to construct mutant receptors in the pSG-5. […]
Oocytes from Xenopus laevis were harvested and prepared using published techniques (Coleman, A., in Hames, B. D., and Higgins, S. J., eds, Transcription and Translation: A Practical Approach, IRL Press, pp. 271-302; Williams, J. A., et al. Proc Natl Acad Sci USA (1988) 85:4939-4943]. To remove follicular cells, oocytes were incubated for 1.5 h with shaking in calcium-free Barth's containing 2 mg/ml each of collagenase 1A and hyaluronidase 1S. The oocytes were then washed five times in regular Barth's and incubated at 18° C. in Barth's medium containing 100 U/ml penicillin, 100 μg/ml streptomycin, and 2.5 mM sodium pyruvate. […] The harvested medium was analyzed by scintillation counting. […]

[2] = target: T2, wild-type mouse C140 receptor (Mus musculus, UniProt P55086); assay: 45Ca release by Xenopus oocytes expressing wild-type mouse C140 receptor; assay type: cell-based
T2 construct: Native receptors were produced by cloning the coding region of the receptor gene; expressed in transfected cells; host or cells: Xenopus laevis oocytes injected with capped cRNA from pSG-5 C140
T2 sequence (P55086 32-399 limits assumed): T1 sequence (P55086 32-399 S39H limits assumed) with H8S
Experimental: Agonist-induced increases in ^45 Ca release by oocytes expressing cRNA encoding C140 receptor or other recombinant cells producing C140 receptor are assessed by published techniques (Williams, J. A., et al., Proc Natl Acad Sci USA (1988) 85:4939-4943). Briefly, intracellular calcium pools are labeled by incubating groups of 30 oocytes in 300 μl calcium-free modified Barth's solution (MBSH) containing 50 μCi ^45 CaCl2 (10-40 mCi/mg Ca; Amersham) for 4 hours at RT. The labeled oocytes or cells are washed, then incubated in MBSH II without antibiotics for 90 minutes. Groups of 5 oocytes are selected and placed in individual wells in a 24-well tissue culture plate (Falcon 3047) containing 0.5 ml/well MBSH II without antibiotics. This medium is removed and replaced with fresh medium every 10 minutes; the harvested medium is analyzed by scintillation counting to determine ^45 Ca released by the oocytes during each 10-minute incubation. The 10-minute incubations are continued until a stable baseline of ^45 Ca release per unit time is achieved. Two additional 10-minute collections are obtained, then test medium including agonist is added and agonist-induced ^45 Ca release determined.
Oocytes from Xenopus laevis were harvested and prepared using published techniques (Coleman, A., in Hames, B. D., and Higgins, S. J., eds, Transcription and Translation: A Practical Approach, IRL Press, pp. 271-302; Williams, J. A., et al. Proc Natl Acad Sci USA (1988) 85:4939-4943]. To remove follicular cells, oocytes were incubated for 1.5 h with shaking in calcium-free Barth's containing 2 mg/ml each of collagenase 1A and hyaluronidase 1S. The oocytes were then washed five times in regular Barth's and incubated at 18° C. in Barth's medium containing 100 U/ml penicillin, 100 μg/ml streptomycin, and 2.5 mM sodium pyruvate. Stage V oocytes were selected and injected with 30 nl of cRNA (0.33 μg/μl water) or water alone, and then incubated with 0.25 ml of medium in groups of four/well in a 96-well culture plate. After 36 hours the oocytes were incubated with ^45 Ca (250 μCi/ml). After 12 h incubation the oocytes were washed and 0.2 ml of medium added and replaced every five minutes. The harvested medium was analyzed by scintillation counting. After five replacements to determine the baseline release of ^45 Ca, test medium with the agonist, e.g. SLIGRL (SEQ ID NO: 23), was added and the evoked ^45 Ca-release determined.
Oocytes were injected with capped cRNA (ca 10 ng) encoding wild-type mouse C140 receptor (WT) or either of the three mutant receptors 35Pro, 35Arg and 35His. After 36 hours, cRNA-injected and control water-injected, oocytes were loaded with ^45 Ca, and 12 hours thereafter peptide or trypsin-induced ^45 Ca release were determined as described above. The peptide SLIGRL (SEQ ID NO: 23) was added at 100 μM, and trypsin at 300 pM. The stimulation with the peptide was done on the same group of oocytes after the stimulation with trypsin. The data shown in Table 1 represent the mean of three replicate determinations, and denotes the increase compared to oocytes injected with water.
Various peptides were tested at 100 μM in the assay above using wild-type mouse C140 receptor, expressed in oocytes.

CC[C@H](C)[C@H](NC(=O)[C@H](CC(C)C)NC(=O)[C@@H](N)CO)C(=O)NCC(=O)N[C@@H](CCCNC(=N)N)C(=O)N[C@@H](CC(C)C)C(=O)O [SLIGRL] (H-SLIGRL-OH)
Fold increase in 45Ca ([1]; peptide at 100 μM, same oocytes after trypsin stimulation): 23 fold | Fold increase in 45Ca ([2]; Table 2, peptides at 100 μM, wild-type mouse C140 receptor in oocytes): 15 fold | Fold increase in 45Ca ([2]; WT receptor, peptide at 100 μM, same oocytes after trypsin stimulation, compared to water-injected oocytes): 11 fold

trypsin
Fold increase in 45Ca ([1]; trypsin at 300 pM, increase compared to water-injected oocytes): 0 fold | Fold increase in 45Ca ([2]; WT receptor, trypsin at 300 pM, increase compared to water-injected oocytes, mean of three): 6.6 fold
